Measurements as given in patent US12570642B2, “GLP-IR modulating compounds” (Gilead Sciences, Inc., priority 2021, dated 2026).

The compounds below were run against GLP-1R (Homo sapiens, UniProt P43220) (assay: GLP-1R Activation - cAMP Assay). Conditions: […]; each compound run on one of the two cAMP assays (Assay 1 or Assay 2, not specified).
Assay type: cell-based
Method in brief: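 cAMP rise read by HTRF after 30 min agonist exposure (10-point titration, 37 °C) in HBSS/20 mM Hepes/0.1% BSA, following 1 h pre-incubation. Cells: stable GLP-1R CHO line, 1,000/well, seeded overnight. Sigmoidal fit of response vs log concentration gives EC50.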

Sequence of GLP-1R (P43220 24-463): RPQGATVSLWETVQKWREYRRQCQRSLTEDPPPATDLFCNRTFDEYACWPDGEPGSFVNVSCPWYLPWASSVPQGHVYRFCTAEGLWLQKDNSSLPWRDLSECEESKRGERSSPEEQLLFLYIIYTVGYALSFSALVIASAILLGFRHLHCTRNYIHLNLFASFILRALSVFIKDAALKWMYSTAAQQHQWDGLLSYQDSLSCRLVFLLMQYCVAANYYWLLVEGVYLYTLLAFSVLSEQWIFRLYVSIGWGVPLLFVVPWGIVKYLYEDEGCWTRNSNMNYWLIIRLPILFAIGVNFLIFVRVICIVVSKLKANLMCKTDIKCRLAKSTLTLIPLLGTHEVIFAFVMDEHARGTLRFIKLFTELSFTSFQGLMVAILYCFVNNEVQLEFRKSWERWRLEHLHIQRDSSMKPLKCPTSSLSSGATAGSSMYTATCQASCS

| SMILES | EC50 [nM] |
| --- | --- |
| CC(=O)N1[C@@H](Cn2c(Cc3cc(F)c(-c4cccc(OCc5ccc(C#N)cc5F)n4)cc3F)nc3ccc(C(=O)O)cc32)C[C@H]2C[C@H]21 [Example 150, 1-(((1R,3R,5R)-2-acetyl-2-azabicyclo[3.1.0]hexan-3-yl)methyl)-2-(4-(6-((4-cyano-2-fluorobenzyl)oxy)pyridin-2-yl)-2,5-difluorobenzyl)-1H-benzo[d]imidazole-6-carboxylic Acid] | 0.063 |

Same assay, conditions: cAMP increase in CHO cells stably expressing GLP-1R; each compound run on one of the two cAMP assays (Assay 1 or Assay 2, not specified)

| SMILES | EC50 [nM] |
| --- | --- |
| Cc1cc(Cc2nc3c(F)cc(C(=O)O)cc3n2[C@@H]2COCC2(C)C)c(Cl)cc1-c1ccc(F)c(OCc2ccc(C#N)cc2)n1 [Example 136, (S)-2-(2-chloro-4-(6-((4-cyanobenzyl)oxy)-5-fluoropyridin-2-yl)-5-methylbenzyl)-1-(4,4-dimethyltetrahydrofuran-3-yl)-4-fluoro-1H-benzo[d]imidazole-6-carboxylic Acid] | 0.312 |
| CC1(C)COC[C@H]1n1c(Cn2cc(F)c(-c3cccc(OCc4ccc(Cl)cc4F)n3)cc2=O)nc2c(F)cc(C(=O)O)cc21 [Example 137, (S)-2-((6-((4-chloro-2-fluorobenzyl)oxy)-5′-fluoro-2′-oxo-[2,4′-bipyridin]-1′(2′H)-yl)methyl)-1-(4,4-dimethyltetrahydrofuran-3-yl)-4-fluoro-1H-benzo[d]imidazole-6-carboxylic Acid] | 0.039 |
| Cc1cc(Cc2nc3c(F)cc(C(=O)O)cc3n2[C@@H]2COCC2(C)C)c(Cl)cc1-c1ccc(F)c(OCc2ccc(C#N)cc2F)n1 [Example 138, (S)-2-(2-chloro-4-(6-((4-cyano-2-fluorobenzyl)oxy)-5-fluoropyridin-2-yl)-5-methylbenzyl)-1-(4,4-dimethyltetrahydrofuran-3-yl)-4-fluoro-1H-benzo[d]imidazole-6-carboxylic Acid] | 0.136 |
| Cc1cc(Cc2nc3c(F)cc(C(=O)O)cc3n2[C@@H]2COCC2(C)C)c(Cl)cc1-c1cccc(OCc2ccc(C#N)cc2F)n1 [Example 139, (S)-2-(2-chloro-4-(6-((4-cyano-2-fluorobenzyl)oxy)pyridin-2-yl)-5-methylbenzyl)-1-(4,4-dimethyltetrahydrofuran-3-yl)-4-fluoro-1H-benzo[d]imidazole-6-carboxylic Acid] | 0.023 |
| Cc1cc(Cc2nc3ccc(C(=O)O)cc3n2[C@@H]2COCC2(C)C)c(Cl)cc1-c1ccc(F)c(OCc2ccc(C#N)cc2F)n1 [Example 140, (S)-2-(2-chloro-4-(6-((4-cyano-2-fluorobenzyl)oxy)-5-fluoropyridin-2-yl)-5-methylbenzyl)-1-(4,4-dimethyltetrahydrofuran-3-yl)-1H-benzo[d]imidazole-6-carboxylic Acid] | 0.158 |
| Cc1cc(Cc2nc3ccc(C(=O)O)cc3n2[C@@H]2COCC2(C)C)c(Cl)cc1-c1cccc(OCc2ccc(C#N)cc2F)n1 [Example 141, (S)-2-(2-chloro-4-(6-((4-cyano-2-fluorobenzyl)oxy)pyridin-2-yl)-5-methylbenzyl)-1-(4,4-dimethyltetrahydrofuran-3-yl)-1H-benzo[d]imidazole-6-carboxylic Acid] | 0.079 |
| Cc1cc(Cc2nc3c(F)cc(C(=O)O)cc3n2C[C@@H]2CCO2)c(Cl)cc1-c1ccc(F)c(OCc2ccc(C#N)cc2F)n1 [Example 142, (S)-2-(2-chloro-4-(6-((4-cyano-2-fluorobenzyl)oxy)-5-fluoropyridin-2-yl)-5-methylbenzyl)-4-fluoro-1-(oxetan-2-ylmethyl)-1H-benzo[d]imidazole-6-carboxylic Acid] | 0.894 |
| Cc1cc(Cc2nc3c(F)cc(C(=O)O)cc3n2C[C@@H]2CCO2)c(Cl)cc1-c1cccc(OCc2ccc(C#N)cc2F)n1 [Example 143, (S)-2-(2-chloro-4-(6-((4-cyano-2-fluorobenzyl)oxy)pyridin-2-yl)-5-methylbenzyl)-4-fluoro-1-(oxetan-2-ylmethyl)-1H-benzo[d]imidazole-6-carboxylic Acid] | 0.614 |
| Cc1cc(Cc2nc3ccc(C(=O)O)cc3n2C[C@@H]2CCO2)c(Cl)cc1-c1ccc(F)c(OCc2ccc(C#N)cc2F)n1 [Example 144, (S)-2-(2-chloro-4-(6-((4-cyano-2-fluorobenzyl)oxy)-5-fluoropyridin-2-yl)-5-methylbenzyl)-1-(oxetan-2-ylmethyl)-1H-benzo[d]imidazole-6-carboxylic Acid] | 1.08 |
| CC1(C)COC[C@H]1n1c(Cn2cc(F)c(-c3cccc(OCc4ccc(C#N)cc4F)n3)cc2=O)nc2c(F)cc(C(=O)O)cc21 [Example 145, (S)-2-((6-((4-cyano-2-fluorobenzyl)oxy)-5′-fluoro-2′-oxo-[2,4′-bipyridin]-1′(2′H)-yl)methyl)-1-(4,4-dimethyltetrahydrofuran-3-yl)-4-fluoro-1H-benzo[d]imidazole-6-carboxylic Acid] | 0.022 |
| Cc1c(-c2cccc(OCc3ccc(C#N)cc3F)n2)ccc(Cc2nc3ccc(C(=O)O)cc3n2C[C@@H]2CCO2)c1F [Example 146, (S)-2-(4-(6-((4-cyano-2-fluorobenzyl)oxy)pyridin-2-yl)-2-fluoro-3-methylbenzyl)-1-(oxetan-2-ylmethyl)-1H-benzo[d]imidazole-6-carboxylic Acid] | 0.379 |
| CC(=O)NCc1cc(F)c(COc2cccc(-c3cc(F)c(Cc4nc5ccc(C(=O)O)cc5n4C[C@@H]4CCO4)cc3F)n2)cn1 [Example 147, (S)-2-(4-(6-((6-(acetamidomethyl)-4-fluoropyridin-3-yl)methoxy)pyridin-2-yl)-2,5-difluorobenzyl)-1-(oxetan-2-ylmethyl)-1H-benzo[d]imidazole-6-carboxylic Acid] | 0.233 |
| O=C(O)c1cc(F)c2nc(Cc3cc(F)c(-c4ncc(F)c(OCc5ccc(C(F)(F)F)cc5F)n4)cc3F)n(C[C@@H]3CCO3)c2c1 [Example 148, (S)-2-(2,5-difluoro-4-(5-fluoro-4-((2-fluoro-4-(trifluoromethyl)benzyl)oxy)pyrimidin-2-yl)benzyl)-4-fluoro-1-(oxetan-2-ylmethyl)-1H-benzo[d]imidazole-6-carboxylic Acid] | 0.174 |
| O=C(O)c1cc(F)c2nc(Cc3cc(F)c(-c4nccc(OCc5ccc(C(F)(F)F)cc5F)n4)cc3F)n(C[C@@H]3CCO3)c2c1 [Example 149] | 0.082 |
| CC1(C)COC[C@H]1n1c(Cc2c(F)cc(-c3nc(OCc4ccc(C#N)cc4)c(F)cc3F)cc2F)nc2ccc(C(=O)O)cc21 [Example 151, (S)-2-(4-(6-((4-cyanobenzyl)oxy)-3,5-difluoropyridin-2-yl)-2,6-difluorobenzyl)-1-(4,4-dimethyltetrahydrofuran-3-yl)-1H-benzo[d]imidazole-6-carboxylic Acid] | 0.234 |
| CC1(C)COC[C@H]1n1c(Cc2ccc(-c3nc(OCc4ccc(C#N)cc4)c(F)cc3F)cc2F)nc2ccc(C(=O)O)cc21 [Example 152, (S)-2-(4-(6-((4-cyanobenzyl)oxy)-3,5-difluoropyridin-2-yl)-2-fluorobenzyl)-1-(4,4-dimethyltetrahydrofuran-3-yl)-1H-benzo[d]imidazole-6-carboxylic Acid] | 0.115 |
| CC1(C)COC[C@H]1n1c(Cc2cc(F)c(-c3ccc(F)c(OCc4cnc(-n5ccnn5)cc4Cl)n3)cc2F)nc2c(F)cc(C(=O)O)cc21 [Example 153, (S)-2-(4-(6-((4-chloro-6-(1H-1,2,3-triazol-1-yl)pyridin-3-yl)methoxy)-5-fluoropyridin-2-yl)-2,5-difluorobenzyl)-1-(4,4-dimethyltetrahydrofuran-3-yl)-4-fluoro-1H-benzo[d]imidazole-6-carboxylic Acid] | 0.011 |
| CC1(C)COC[C@H]1n1c(Cc2ccc(-c3ccc(F)c(OCc4cnc(-n5ccnn5)cc4Cl)n3)cc2F)nc2c(F)cc(C(=O)O)cc21 [Example 154, (S)-2-(4-(6-((4-chloro-6-(1H-1,2,3-triazol-1-yl)pyridin-3-yl)methoxy)-5-fluoropyridin-2-yl)-2-fluorobenzyl)-1-(4,4-dimethyltetrahydrofuran-3-yl)-4-fluoro-1H-benzo[d]imidazole-6-carboxylic Acid] | 0.034 |
| COCCn1c(Cc2ccc(-c3ccc(F)c(OCc4cnc(-n5ccnn5)cc4Cl)n3)cc2F)nc2ccc(C(=O)O)cc21 [Example 155, 2-(4-(6-((4-chloro-6-(1H-1,2,3-triazol-1-yl)pyridin-3-yl)methoxy)-5-fluoropyridin-2-yl)-2-fluorobenzyl)-1-(2-methoxyethyl)-1H-benzo[d]imidazole-6-carboxylic Acid] | 0.416 |
| Cc1cc(Cc2nc3ccc(C(=O)O)cc3n2[C@@H]2COCC2(C)C)c(Cl)cc1-c1cccc(OCc2cnc(-n3ccnn3)cc2Cl)n1 [Example 156, (S)-2-(2-chloro-4-(6-((4-chloro-6-(1H-1,2,3-triazol-1-yl)pyridin-3-yl)methoxy)pyridin-2-yl)-5-methylbenzyl)-1-(4,4-dimethyltetrahydrofuran-3-yl)-1H-benzo[d]imidazole-6-carboxylic Acid] | 0.064 |
| CC1(C)COC[C@H]1n1c(Cc2c(F)cc(-c3cccc(OCc4cnc(-n5ccnn5)cc4Cl)n3)c(F)c2F)nc2ccc(C(=O)O)cc21 [Example 157, (S)-2-(4-(6-((4-chloro-6-(1H-1,2,3-triazol-1-yl)pyridin-3-yl)methoxy)pyridin-2-yl)-2,3,6-trifluorobenzyl)-1-(4,4-dimethyltetrahydrofuran-3-yl)-1H-benzo[d]imidazole-6-carboxylic Acid] | 0.081 |
| CC1(C)COC[C@H]1n1c(Cc2ccc(-c3cccc(OCc4cnc(-n5ccnn5)cc4Cl)n3)cc2F)nc2ccc(C(=O)O)cc21 [Example 158, (S)-2-(4-(6-((4-chloro-6-(1H-1,2,3-triazol-1-yl)pyridin-3-yl)methoxy)pyridin-2-yl)-2-fluorobenzyl)-1-(4,4-dimethyltetrahydrofuran-3-yl)-1H-benzo[d]imidazole-6-carboxylic Acid] | 0.032 |
